From publication PMC3597730, “Novel Phenolic Inhibitors of Small/Intermediate-Conductance Ca^2+-Activated K^+ Channels, KCa3.1 and KCa2.3” (PLoS ONE, 2013) come the findings set out here.

The structures appear in SMILES notation. Several values for one entry are separate records, joined by “and”; a condition that tells them apart may be missing. Equal entries are not always repeated.

Assay [1] relates to porcine coronary artery rings. The experiment in a line: Isometric myography: endothelium-independent relaxation to sodium nitroprusside. To be noted: pre-contracted by 60 mM K+. On the procedure:
(§1) Myography on porcine coronary artery rings was performed as described in detail previously, [30]. In brief, left anterior descending arteries or posterior descending arteries were cut into rings (3 mm long) and rings were mounted onto a isometric force transducer (Pioden UF1, Graham Bell House, Canterbury, UK). The organ bath contained a 5 ml Krebs buffer maintained at 37°C and gassed with 95% O2/5% CO2. The composition of the Krebs buffer was as follows (in mM): NaCl 120, NaHCO3 24.5, CaCl2 2.4, KCl 4.7, MgSO4 1.2, KH2PO4 1 and glucose 5.6, pH 7.4. Each ring was passively stretched to an initial tension of 1 gr (10 mN). Changes in force were monitored and recorded on a computer using a Mac Lab System/8e program (AD Instruments Inc, Milford, Ma, USA), and digitalized at a sample rate of 0.5 sec.
(§2) To measure specifically endothelium-derived hyperpolarization-mediated vasorelaxation (EDH), the NO-synthase blocker, Nω-nitro-L-arginine (L-NNA, 300 µM), and the cyclooxygenase blocker, indomethacin (10 µM), were added to the buffer. Preparations were washed three times and were allowed to equilibrate for 40 min. Within this period, the incubation medium was renewed every 20 min. […] Ten min later, bradykinin (1 µM) was added for another 10 min, followed by washout (over at least 10 min). This protocol was repeated (2nd stimulation). Thereafter, we performed a 3rd round of pre-contraction and vasorelaxation, but using the vasospasmic thromboxane analogue U46619 (0.2 µM) as vasocontracting agent. At the end of the experiments, rings were allowed to contract maximally in a KCl (60 mM) buffer for 10 min followed by addition of the compounds. Finally, sodium nitroprusside (10 µM) was added to achieve maximal endothelium-independent vasorelaxation. […]
(§3) For data analysis, we determined absolute increases in force to 5-HT, U46619, or 60 mM KCl. Bradykinin-induced relaxations were determined as % change of pre-contraction to either vasocontracting compound and relative to the fully relaxed state (in the absence of the vasocontracting agent).

The test system of assay [2] is porcine coronary artery rings. The experiment in a line: Isometric myography: 5-HT-induced contractions. To be noted: for Δg, 1st stimulation / Δg, 2nd stimulation: 1 µM 5-HT. The protocol:
as §1
(§4) To measure specifically endothelium-derived hyperpolarization-mediated vasorelaxation (EDH), the NO-synthase blocker, Nω-nitro-L-arginine (L-NNA, 300 µM), and the cyclooxygenase blocker, indomethacin (10 µM), were added to the buffer. Preparations were washed three times and were allowed to equilibrate for 40 min. Within this period, the incubation medium was renewed every 20 min. […] Ten min later, bradykinin (1 µM) was added for another 10 min, followed by washout (over at least 10 min). This protocol was repeated (2nd stimulation). Thereafter, we performed a 3rd round of pre-contraction and vasorelaxation, but using the vasospasmic thromboxane analogue U46619 (0.2 µM) as vasocontracting agent. At the end of the experiments, rings were allowed to contract maximally in a KCl (60 mM) buffer for 10 min followed by addition of the compounds. Finally, sodium nitroprusside (10 µM) was added to achieve maximal endothelium-independent vasorelaxation.
(§5) DMSO as the vehicle had no vasoactive effect per se on the tissue. Other compounds were dissolved in Milli-Q water.
as §3

The subject of assay [3] is porcine coronary artery rings. The experiment in a line: Isometric myography: U46619-induced contractions. To be noted: 0.2 µM U46619. The protocol:
as §1, §4, §5, §3

Assay [4] deals with porcine coronary artery rings. The experiment in a line: Isometric myography: bradykinin-induced (EDH) relaxation. The conditions noted are these: for % relaxation, 5-HT-precontraction / % relaxation, U46619-precontraction: 1 µM bradykinin. On the procedure:
as §1, §4, §5, §3

Assay [5] has as its system porcine coronary artery rings. The assay can be described thus: Isometric myography: contractions to 60 mM K+. The protocol:
as §1, §2, §3

Where [6] appears, read: 13b 0.5 µM, SKA-31 1 µM, alone or combined.
Setting [7] is: SKA-31 10 µM, alone or with 13b 0.5 µM.

On to `Nc1nc2c(ccc3ccccc32)s1` [SKA-31, naphtho[1,2-d]thiazol-2-ylamine], for which the “% relaxation to 10 µM SNP” value in assay [1] (setting [6]) stood at 82±8%; in assay [1] (setting [7]), 80±5%. Besides, the “Δg, 1st stimulation” value in assay [2] (setting [6]) and in assay [2] (setting [7]) was 0.4 ± 0.1 g each time. For the same molecule, the “Δg, 2nd stimulation” value in assay [2] (setting [6]) turned out to be 0.5 ± 0.1 g; in assay [2] (setting [7]) it was 0.23 ± 0.02 g. Moreover, the “change of amplitude of 5-HT contraction vs. vehicle, 2nd stimulation” value in assay [2] (setting [7]) is recorded as −44%. The Δg in assay [3] (setting [6]) is 1.9 ± 0.5 g; in assay [3] (setting [7]), 1.7 ± 0.2 g. For the same molecule, the “% relaxation, 5-HT-precontraction” value in assay [4] (setting [6]) is recorded as 65±6%; in assay [4] (setting [7]) it was 47±8%. Besides, the “% relaxation, U46619-precontraction” value in assay [4] (setting [6]) is 5% and 5±1%; in assay [4] (setting [7]), 10% and 10±2%. Further, the “change of bradykinin relaxation vs. vehicle, 5-HT-precontracted rings” value in assay [4] (setting [6]) is “+110%”; in assay [4] (setting [7]) it was “+52%”. For the same molecule, the “Δg, contraction to 60 mM K+” value in assay [5] (setting [6]) was found to be 3.2 ± 0.5 g; in assay [5] (setting [7]), 2.5 ± 0.4 g.
